Converted amounts (≈) assume the structure as drawn. Like-named read-outs stand apart in the source and are kept apart here.
How the values were obtained:
Pseudomonas aeruginosa = format: cell-based
Procedure: The computer simulations were compared to experimental data from an in-vitro hollow fiber infection model with similar antimicrobial agent exposures (20). Basically the drug was injected directly into the central reservoir to achieve the peak concentration desired. Fresh (drug-free) growth medium (Ca-MHB) was continuously infused from the diluent reservoir into the central reservoir to dilute the drug in order to simulate drug elimination in humans. An equal volume of meropenem-containing medium was removed from the central reservoir concurrently to maintain an isovolumetric system. […]
Various elimination half-lives (1-3 hours) of meropenem were simulated and were validated subsequently in the infection models. Serial samples were obtained at baseline and daily (pre-dose) in duplicate from each hollow fiber system, for quantitative culture to define the effect of various drug exposures on the total bacterial population and on selection of resistant bacterial sub-populations.
Prior to culturing the bacteria quantitatively, the bacterial samples were centrifuged at 15,000 G for 15 minutes and reconstituted with sterile normal saline in order to minimize drug carry-over effect. Total bacterial populations were quantified by spiral plating 10× serial dilutions of the samples (50 μl) onto drug-free Mueller-Hinton agar (MHA) plates (Hardy Diagnostics, Santa Maria, Calif.). […]

[1] = system: P. aeruginosa ATCC 27853 and its isogenic OprD− mutant (1000:1); test: Murine pneumonia model; format: in vivo, mice
Procedure: (§1) Female Swiss-Webster mice (22-26 g) were used; all mice were cared for in accordance to the highest humane and ethical standards, as approved by the Institutional Animal Care and Use Committee (IACUC). The animals were housed in isolation boxes to decrease the risk of infection from extraneous pathogens. They received food and water ad libitum. The animals were rendered neutropenic by 2 intra-peritoneal injections of cyclophosphamide (Sigma, St. Louis, Mo.) 150 mg/kg on day −4 and 100 mg/kg on day −1 prior to infection; previous studies have shown that this regimen would produce neutropenia for 5 days (13, 16). Transient nephrotoxicity was induced by 1 intra-peritoneal injection of uranyl nitrate (5 mg/kg on day −2), which has been previously shown to produce a significant stable reduction in renal function for at least 7 days (21).
Each mouse was anesthetized with a single intra-peritoneal dose ([…]) of tribromoethanol (Sigma, St. Louis, Mo.), and was intubated under laryngoscopic guidance. For each mouse, the correct placement of endotracheal tube was verified by placing a cooled mirror surface close to the exit to observe water vapor condensation. A few colonies of the bacterial isolates were inoculated into Ca-MHB and incubated at 35° C. until they reached late log phase growth. The bacterial suspension was diluted to the desired concentration of approximately 10^8 CFU/ml based on absorbance at 630 nm; a mixture of wild-type and its isogenic OprD^− mutant in a 1000:1 ratio was used to mimic a heterogeneous bacterial population. The inocula (10 μl) were directly inoculated into the trachea of the anesthetized animals.
Two hours after infection, 3 mice were sacrificed by CO2 asphyxiation to ascertain the bacterial burden in lung tissues. The lung tissues were aseptically collected and homogenized in 10 ml of sterile saline. The homogenates were centrifuged at 6000×G for 15 minutes. The supernatant was discarded and the pellets were re-suspended in normal saline to 10× their original volumes in order to minimize drug carry-over effect. They were then diluted ten-fold serially and quantitatively cultured on Mueller-Hinton agar (MHA) plates (Hardy Diagnostics, Santa Maria, Calif.) and MHA plates supplemented with meropenem at 3× the MIC of the wild-type isolate. The media plates were incubated at 35° C. in a humidified incubator for up to 24 hours (for MHA plates) and 72 hours (for meropenem-supplemented MHA plates) before reading and the bacterial burden in lung tissues enumerated.
The remaining mice were observed every 8 hours for 4 days, with or without meropenem (400 mg/kg) given intra-peritoneally every 8 hours (10 mice in each group). Total bacterial burden and those with reduced susceptibility in animal lung tissues were determined in a similar manner upon death or at the end of the experiment. Susceptibility testing was repeated on representative isolates recovered from meropenem-supplemented plates to confirm the presence of resistance.

[2] = system: amikacin resistant A. baumannii isolates; test: Resistance confirmation, repeat susceptibility testing, amikacin; format: cell-based, Acinetobacter baumannii; conditions: amikacin resistant isolates
Procedure: The media plates were incubated at 35° C. for up to 24 (total population) and 72 hours (sub-populations with reduced susceptibility), then bacterial density from each sample was enumerated visually. The theoretical lower limit of detection was 400 CFU/ml.

P. aeruginosa ATCC 27853 = test: MIC/MBC, modified macrobroth dilution; format: cell-based, Pseudomonas aeruginosa
Procedure: The final concentration of bacteria in each macrobroth dilution tube was approximately 5×10^5 cfu/ml of Ca-MHB. Serial twofold dilutions of meropenem were used. […] Samples (50 μl) from clear tubes and the cloudy tube with the highest drug concentration were plated on Mueller-Hinton agar (MHA) plates (Hardy Diagnostics, Santa Maria, Calif.). […] Drug carry-over effect was assessed by visual inspection of the distribution of colonies on media plates. The studies were conducted in duplicate and repeated at least once on a separate day.

in vivo = test: in vivo
Procedure: In vivo meropenem concentrations in mouse serum were determined by a microbioassay utilizing Escherichia coli ATCC 25922 as the reference organism. The meropenem standard solutions ranged from 0.5 to 128 μg/ml in mouse serum.
as §1
The bacterial inoculum was prepared and inoculated into the animals as outlined below. […] Six mice were sacrificed by CO2 asphyxiation at 0.5, 1, 1.5, 2, and 3 hours after injection. Blood samples were collected via cardiac puncture. The blood was allowed to clot on ice and centrifuged; meropenem concentrations in these serum samples were assayed by a validated method as described below. The serum concentration profiles of all the animals were analyzed by linear regression of the logarithmic-transformed data.

[3] = 10 mice received meropenem treatment
[4] = female, Swiss-Webster, mouse, in vivo, 400 mg/kg

C[C@@H](O)[C@H]1C(=O)N2C(C(=O)O)=C(S[C@@H]3CN[C@H](C(=O)N(C)C)C3)[C@H](C)[C@H]12 [meropenem]
microbial response (Pseudomonas aeruginosa): associated with regrowth
Cmin/MIC necessary to suppress the emergence of resistance (Pseudomonas aeruginosa; Cmax 64 μg/ml, dosing every 8 hours for 5 days): ≥ 4
survival over 4 days ([1]; 400 mg/kg intra-peritoneally every 8 hours): 100%
animals with complete replacement of bacterial population by the OprD− mutant in lung tissue ([1]; 400 mg/kg intra-peritoneally every 8 hours, 96 hours): 30%
mice in which resistance emergence was found [1, 3]: 3 mice
mice that survived up to 96 hours [1, 3]: 10 mice
MIC of isolates recovered from meropenem-supplemented MHA plates compared to the OprD− mutant ([1]; repeat susceptibility testing): did not reveal a substantial increase in MIC
cross-resistance [2]: not
MBC (P. aeruginosa ATCC 27853; Pseudomonas aeruginosa, ATCC27853, P. aeruginosa isolate, read-out: MBC): 1 µg/mL (≈ 2.61 µM)
MIC (P. aeruginosa ATCC 27853; Pseudomonas aeruginosa, ATCC27853, P. aeruginosa isolate, read-out: MIC): 1 µg/mL (≈ 2.61 µM)
MIC (P. aeruginosa ATCC 27853; wild-type isolate used in vivo): 1 µg/mL (≈ 2.61 µM)
% T>MIC (in vivo; 400 mg/kg, OprD− mutant): 26%
% T>MIC (in vivo; 400 mg/kg, wild-type isolate): 33%
Cmax (in vivo; [4]): 354 µg/mL
half-life (in vivo; [4]): 19 min
serum concentration (in vivo; lower doses (50 mg/kg and 100 mg/kg)): did not result a detectable serum meropenem concentration beyond 1 hour
